Experimental data from US20240208961A1, “EIF4E INHIBITORS AND USES THEREOF” (PIC Therapeutics, Inc., priority 2022, published 2024).
Values joined by “and” are separate entries in the source; they are usually repeats but may differ in a detail not shown here. Identical values can stand only once. Like-named read-outs stand apart in the source and are kept apart here.

Experiments:
[1] = Pharmacokinetic studies of certain compounds in female Balb/c mice (Example 5); type: in vivo
Summary of the method: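 Female Balb/c mice (N=9) were fasted overnight and given compound PO as a suspension in 1% CMC/0.2% Tween 80 or IV in 5% DMSO/5% Solutol HS15/90% saline. Facial-vein plasma was taken from 0.083 to 24 h and assayed by LC-MS. Parameters are non-compartmental, and F was based on AUCINF or AUClast.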

Human eIF4E (aa 28-217) = biological target: T1, Human eIF4E (aa 28-217) (Homo sapiens, UniProt P06730); assay: 4G-eIF4E protein-based assay (TR-FRET, biotin labeled 4G2 peptide); type: binding
T1 construct: Human eIF4E (aa 28-217) with a C-terminal His-tag; made in house

[2] = I-29 IV 1.48 mg/kg, 4 hr, BQL = below quantifiable limit of 3.00 ng/mL
[3] = I-29 IV 1.48 mg/kg, 8 hr, BQL = below quantifiable limit of 3.00 ng/mL
[4] = I-29 IV 1.48 mg/kg, 24 hr, BQL = below quantifiable limit of 3.00 ng/mL
[5] = I-29 PO 23.8 mg/kg, 24 hr, BQL = below quantifiable limit of 3.00 ng/mL
[6] = mouse, plasma, I-29 IV 1.48 mg/kg
[7] = mouse, plasma, I-29 PO 23.8 mg/kg

T1 sequence (P06730 28-217): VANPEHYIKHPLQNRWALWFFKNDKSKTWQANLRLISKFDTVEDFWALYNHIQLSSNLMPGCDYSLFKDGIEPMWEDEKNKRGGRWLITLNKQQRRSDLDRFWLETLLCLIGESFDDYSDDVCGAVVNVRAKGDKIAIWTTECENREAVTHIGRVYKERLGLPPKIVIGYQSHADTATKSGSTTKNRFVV

- Plasma concentration Individual ([1]; I-29 IV 1.48 mg/kg, 0.083 hr, 1.48 mg/kg): 641 ng/mL and 603 ng/mL
- Plasma concentration Individual ([1]; I-29 IV 1.48 mg/kg, 0.25 hr, 1.48 mg/kg): 121 ng/mL and 162 ng/mL and 336 ng/mL
- Plasma concentration Individual ([1]; I-29 IV 1.48 mg/kg, 0.5 hr, 1.48 mg/kg): 71.2 ng/mL and 51.0 ng/mL
- Plasma concentration Individual ([1]; I-29 IV 1.48 mg/kg, 1 hr, 1.48 mg/kg): 15.9 ng/mL and 81.1 ng/mL and 29.6 ng/mL
- Plasma concentration Individual ([1]; I-29 IV 1.48 mg/kg, 2 hr, 1.48 mg/kg): 3.54 ng/mL and 4.97 ng/mL and 7.24 ng/mL
- Plasma concentration Individual [1, 2]: BQL
- Plasma concentration Mean [1, 2]: BQL
- Plasma concentration Individual [1, 3]: BQL
- Plasma concentration Mean [1, 3]: BQL
- Plasma concentration Individual [1, 4]: BQL
- Plasma concentration Mean [1, 4]: BQL
- F ([1]; I-29 PO 23.8 mg/kg vs IV 1.48 mg/kg): 67.3%
- Plasma concentration Individual ([1]; I-29 PO 23.8 mg/kg, 0.083 hr, 23.8 mg/kg): 39.6 ng/mL and 53.6 ng/mL
- Plasma concentration Individual ([1]; I-29 PO 23.8 mg/kg, 0.25 hr, 23.8 mg/kg): 147 ng/mL and 146 ng/mL
- Plasma concentration Individual ([1]; I-29 PO 23.8 mg/kg, 0.5 hr, 23.8 mg/kg): 344 ng/mL and 464 ng/mL
- Plasma concentration Individual ([1]; I-29 PO 23.8 mg/kg, 1 hr, 23.8 mg/kg): 237 ng/mL and 618 ng/mL and 703 ng/mL
- Plasma concentration Individual ([1]; I-29 PO 23.8 mg/kg, 2 hr, 23.8 mg/kg): 620 ng/mL and 640 ng/mL
- Plasma concentration Individual ([1]; I-29 PO 23.8 mg/kg, 4 hr, 23.8 mg/kg): 147 ng/mL and 218 ng/mL
- Plasma concentration Individual ([1]; I-29 PO 23.8 mg/kg, 8 hr, 23.8 mg/kg): 106 ng/mL and 75.9 ng/mL
- Plasma concentration Individual [1, 5]: BQL
- Plasma concentration Mean [1, 5]: BQL
- concentration at 0.083 hr ([1]; female, Balb/c, mouse, plasma, iv, 1.48 mg/kg, I-29 IV 1.48 mg/kg, 0.083 hr, read-out: Plasma concentration Individual): 558 ng/mL
- concentration at 0.083 hr ([1]; female, Balb/c, mouse, plasma, iv, 1.48 mg/kg, I-29 IV 1.48 mg/kg, 0.083 hr, read-out: Plasma concentration Mean): 601 ng/mL
- concentration at 0.25 hr ([1]; female, Balb/c, mouse, plasma, iv, 1.48 mg/kg, I-29 IV 1.48 mg/kg, 0.25 hr, read-out: Plasma concentration Mean): 206 ng/mL
- concentration at 0.5 h ([1]; female, Balb/c, mouse, plasma, iv, 1.48 mg/kg, I-29 IV 1.48 mg/kg, 0.5 hr, read-out: Plasma concentration Individual): 95.5 ng/mL
- concentration at 0.5 h ([1]; female, Balb/c, mouse, plasma, iv, 1.48 mg/kg, I-29 IV 1.48 mg/kg, 0.5 hr, read-out: Plasma concentration Mean): 72.6 ng/mL
- concentration at 1 h ([1]; female, Balb/c, mouse, plasma, iv, 1.48 mg/kg, I-29 IV 1.48 mg/kg, 1 hr, read-out: Plasma concentration Mean): 42.2 ng/mL
- concentration at 2 hr ([1]; female, Balb/c, mouse, plasma, iv, 1.48 mg/kg, I-29 IV 1.48 mg/kg, 2 hr, read-out: Plasma concentration Mean): 5.25 ng/mL
- concentration at 0.083 hr ([1]; female, Balb/c, mouse, plasma, po, 23.8 mg/kg, I-29 PO 23.8 mg/kg, 0.083 hr, read-out: Plasma concentration Individual): 31.6 ng/mL
- concentration at 0.083 hr ([1]; female, Balb/c, mouse, plasma, po, 23.8 mg/kg, I-29 PO 23.8 mg/kg, 0.083 hr, read-out: Plasma concentration Mean): 41.6 ng/mL
- concentration at 0.25 hr ([1]; female, Balb/c, mouse, plasma, po, 23.8 mg/kg, I-29 PO 23.8 mg/kg, 0.25 hr, read-out: Plasma concentration Individual): 160 ng/mL
- concentration at 0.25 hr ([1]; female, Balb/c, mouse, plasma, po, 23.8 mg/kg, I-29 PO 23.8 mg/kg, 0.25 hr, read-out: Plasma concentration Mean): 151 ng/mL
- concentration at 0.5 hr ([1]; female, Balb/c, mouse, plasma, po, 23.8 mg/kg, I-29 PO 23.8 mg/kg, 0.5 hr, read-out: Plasma concentration Individual): 305 ng/mL
- concentration at 0.5 hr ([1]; female, Balb/c, mouse, plasma, po, 23.8 mg/kg, I-29 PO 23.8 mg/kg, 0.5 hr, read-out: Plasma concentration Mean): 371 ng/mL
- concentration at 1 hr ([1]; female, Balb/c, mouse, plasma, po, 23.8 mg/kg, I-29 PO 23.8 mg/kg, 1 hr, read-out: Plasma concentration Mean): 519 ng/mL
- concentration at 2 hr ([1]; female, Balb/c, mouse, plasma, po, 23.8 mg/kg, I-29 PO 23.8 mg/kg, 2 hr, read-out: Plasma concentration Individual): 554 ng/mL
- concentration at 2 hr ([1]; female, Balb/c, mouse, plasma, po, 23.8 mg/kg, I-29 PO 23.8 mg/kg, 2 hr, read-out: Plasma concentration Mean): 605 ng/mL
- concentration at 4 hr ([1]; female, Balb/c, mouse, plasma, po, 23.8 mg/kg, I-29 PO 23.8 mg/kg, 4 hr, read-out: Plasma concentration Individual): 187 ng/mL
- concentration at 4 hr ([1]; female, Balb/c, mouse, plasma, po, 23.8 mg/kg, I-29 PO 23.8 mg/kg, 4 hr, read-out: Plasma concentration Mean): 184 ng/mL
- concentration at 8 hr ([1]; female, Balb/c, mouse, plasma, po, 23.8 mg/kg, I-29 PO 23.8 mg/kg, 8 hr, read-out: Plasma concentration Individual): 57.1 ng/mL
- concentration at 8 hr ([1]; female, Balb/c, mouse, plasma, po, 23.8 mg/kg, I-29 PO 23.8 mg/kg, 8 hr, read-out: Plasma concentration Mean): 79.7 ng/mL
- AUC(0-inf) [1, 6]: 225 ng·h/mL
- AUC(0-t) [1, 6]: 222 ng·h/mL
- C0 [1, 6]: 1020 ng/mL
- MRT inf [1, 6]: 0.33 h
- MRT last [1, 6]: 0.304 h
- clearance [1, 6]: 110 mL/min/kg
- half-life [1, 6]: 0.352 h
- Vd ([1]; mouse, plasma, I-29 IV 1.48 mg/kg, read-out: Vss): 2.18 L/kg
- AUC(0-inf) [1, 7]: 2430 ng·h/mL
- AUC(0-t) [1, 7]: 2180 ng·h/mL
- Cmax [1, 7]: 605 ng/mL
- MRT inf [1, 7]: 3.51 h
- MRT last [1, 7]: 2.64 h
- Tmax [1, 7]: 2 h
- half-life [1, 7]: 2.17 h
- IC50 (Human eIF4E (aa 28-217)): 500 to 1000 nM
SMILES: CC(C)Cc1sc(Nc2ncc(-c3cccs3)cc2C(=O)O)nc1C1CCC(F)(F)CC1 [Compound I-29]
